Data set [1] can be described thus: Microsomal stability. The data set is classed as in vitro ADME, mouse. The method, then:
The assay was performed in duplicates essentially as described previously,[58] using male CD1 mouse liver microsomes (Thermo Fischer Scientific, 20 mg/mL), NADPH-regenerating agent Solution A and Solution B (Promega), potassium phosphate buffer (100 mM, pH 7.4), and test compounds (1 mM, diluted from 10 mM DMSO stock in the buffer). The samples were analyzed in an Agilent 6130 Mass Spectrometer instrument using electron spray ionization (ESI) coupled to an Agilent 1200 HPLC system (ESI-LCMS) with a C18 reverse phase column (Zorbax Eclipse XBD-C18, 4.6 mm × 50 mm) using a linear gradient of the binary solvent system of 100% mobile phase A (water:MeCN:formic acid, 95:5:0.1 v/v%) to 100% mobile phase B (MeCN:formic acid, 100:0.1 v/v %) in 6 min, with a flow rate of 1 mL/min.
To a pre-warmed solution of potassium phosphate buffer (135.6 μL) in an Eppendorf tube at 37 °C were added Solution A (7.5 μL), Solution B (1.5 μL), microsomes (3.9 μL), and the test compound (1 mM, 1.5 μL, final concentration = 10 μM). The tube was briefly vortexed and incubated at 37 °C in a thermomixer. At 0, 15, 30, 45, and 60 min, 25 μL of each sample was transferred to an ice-cold solution containing an internal standard (5 μM in MeCN, 12.5 μL). The sample was briefly vortexed and centrifuged for 5 min at 10.000g. The supernatant (25 μL) was transferred to HPLC vial and analyzed by ESI-LCMS in single ion mode. The data was analyzed using GraphPad Prism (version 9).

For data set [2], the target named is T1, hFFA2 (Homo sapiens, UniProt O15552).
T1 construct: expressed in transfected cells; host or cells: Flp-In T-Rex 293 cells, doxycycline-induced
T1 sequence (O15552 1-330): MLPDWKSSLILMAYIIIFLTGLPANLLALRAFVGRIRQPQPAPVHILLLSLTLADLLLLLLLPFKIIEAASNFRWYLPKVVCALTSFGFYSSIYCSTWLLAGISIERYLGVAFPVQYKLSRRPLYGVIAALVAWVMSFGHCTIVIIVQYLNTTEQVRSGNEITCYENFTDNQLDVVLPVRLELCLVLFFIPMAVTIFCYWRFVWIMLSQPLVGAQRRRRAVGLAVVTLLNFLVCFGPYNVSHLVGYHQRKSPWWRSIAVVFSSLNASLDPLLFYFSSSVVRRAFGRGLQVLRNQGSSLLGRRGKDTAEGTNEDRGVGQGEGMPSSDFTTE
The experiment in a line: cAMP assay, antagonist mode, Flp-In T-Rex 293 cells expressing hFFA2-eYFP. Format: cell-based. Particulars: for cAMP pIC50: hFFA2, antagonist mode, propionate at EC80, mean ± SEM, three or more experiments; for LLEcAMP: pIC50, cAMP – ClogP; for LLEcAMP-logD: pIC50, cAMP – logD7.4. How it is done: (§1) The activity of the compounds on FFA2 was evaluated in two different functional antagonist assays, both using propionate at EC80 as the agonist. The GTPγS assay reflects receptor activation by directly assessing G protein recruitment, whereas the cAMP assay, performed in whole cells, reflects a physiologically relevant downstream second messenger.
The hFFA2-eYFP and hFFA3-eYFP Flp-In T-Rex 293 cell lines were maintained in Dulbecco’s modified Eagle mMedium (DMEM, ThermoFisher #11965092) supplemented with 10% (v/v) fetal bovine serum, 100 U/mL penicillin, 100 μg/mL streptomycin, 5 μg/mL blasticidin S, and 200 μg/mL hygromycin B and incubated at 37 °C and 5% CO2 in a humidified incubator. Cells were passaged at 70–80% confluency.
To determine the compound’s ability to activate or inhibit the Gi-coupled FFA2 or FFA3, intracellular cAMP concentrations were determined using Flp-In T-Rex293 cells induced to express hFFA2-eYFP or hFFA3-eYFP. Experiments were carried out using a homogeneous time-resolved FRET-based detection kit (CisBio, PerkinElmer #62AM9PEC) according to the manufacturer’s protocol. The day before the assay, 10,000 cells/well were plated in DMEM supplemented with penicillin/streptomycin (100 units/mL and […], respectively), 5 μg/mL blasticidin S, and 200 μg/mL hygromycin B in 96-well cell culture microplates (Greiner Bio-One) and induced to express hFFA2-eYFP or hFFA3-YFP with 100 ng/mL doxycycline.
In antagonist mode, the cells were pre-incubated for 20 min with antagonist test compounds in HBSS together with 50 μM IBMX at rt. Then, the cells were further incubated for 25 min at rt in HBSS with the agonist compound, sodium propionate at EC80 (51.4 μM for FFA2, 13.2 μM for FFA3), and 3 μM forskolin. Reactions were stopped, and the output was measured with an Envision plate reader using a time-resolved fluorescence protocol, measuring the light emission at 620 and 665 nm. All analyses were performed in triplicate and analyzed using GraphPad Prism (version 9).
On the technique in general: Cyclic AMP is a second messenger, typically raised through Gs and lowered through Gi signalling.

Data set [3] addresses T2, human FFA2-eYFP (Homo sapiens, UniProt O15552).
T2 construct: expressed in transfected cells; host or cells: membranes of Flp-In T-Rex 293 cells induced to express the construct
T2 sequence (O15552 1-330): T1 sequence (O15552 1-330)
The experiment in a line: [35S]GTPγS incorporation assay, membranes of Flp-In T-Rex 293 cells. The data set is classed as biochemical. Particulars: for GTPγS pIC50: hFFA2, propionate at EC80, mean ± SEM, three or more experiments; for LLEGTPγS: pIC50, GTPγS – ClogP. How it is done:
as §1
Functional activity of the compounds were tested in a [^35S]GTPγS incorporation assay using membranes of Flp-In T-Rex 293 cells induced to express human FFA2-eYFP. […] The reaction was initiated by addition of [^35S]GTPγS (100 nCi per reaction) containing 1 μM GDP and incubated at 30 °C for 60 min. The reaction was terminated by rapid vacuum filtration through GF/C glass fiber filter-bottom 96-well microplates (PerkinElmer Life Sciences, Beaconsfield, UK) using a UniFilter FilterMate Harvester (PerkinElmer). Unbound radioligands were removed from filters by three washes with ice-cold PBS. MicroScint-20 (PerkinElmer) was added to dried filters, and [^35S]GTPγS binding was quantified by liquid scintillation spectroscopy.
A general note: GTPγS is a poorly hydrolysed GTP analogue; its binding reports G protein activation.

Data set [4] is described as follows: Chemical stability in PBS7.4. The data set is classed as physicochemical. How it is done:
Duplicates of 1 mL of a 50 μM solution were prepared by adding the 10 mM stock solution to a 1.5 mL Eppendorf tube and diluting it with PBS7.4. The Eppendorf tubes were incubated at 37 °C with gentle shaking (650 rpm) using an Eppendorf Thermomixer. The samples were briefly vortexed, and 50 μL aliquots were withdrawn at the time points 0, 12, 48, etc.; added to 250 μL vials; and analyzed immediately by HPLC. The chemical stability in PBS7.4 was determined at every time point in percentage relative to the 0 h time point.

[5] abbreviates: % recovered after 60 min, mouse liver microsomes.
[6] abbreviates: remaining, PBS7.4 at 37 °C, 10 days.

Values joined by “and” are separate entries in the source; they are usually repeats but may differ in a detail not shown here. Equal values may be shown once. Read-outs that look alike come from different tables or passages of the source.

Here are results for three compounds from paper PMC10547238, “Discovery of Potent Tetrazole Free Fatty Acid Receptor 2 Antagonists” (Journal of Medicinal Chemistry, 2023).

`O=C(O)C[C@H](Cc1ccc(C(F)(F)F)cc1)NC(=O)Cc1cccc(Cl)c1` [Compound 3, reference compound] gave a microsomal stability in data set [1] (setting [5]) of 91%. In addition, in data set [2], the “cAMP pIC50” value turned out to be 6.96 ± 0.07, the LLEcAMP was found to be 2.75 and the LLEcAMP-logD is 5.57. Moreover, in data set [3], the “GTPγS pIC50” value is given as 6.68 ± 0.05 and the LLEGTPγS is given as 2.47. The chemical stability in data set [4] (setting [6]) is reported as 90%.
In turn, `O=C(Cc1cncc(Br)c1)N[C@@H](Cc1ccc(C(F)(F)F)cc1)Cc1nnn[nH]1` [Compound 16w, (S)-3-(2-((1-(1H-Tetrazol-5-yl)-3-(4-(trifluoromethyl)phenyl)propan-2-yl)amino)-2-oxoethyl)-5-bromopyridin-1-ium 2,2,2-trifluoroacetate] had a microsomal stability in data set [1] (setting [5]) of 92%. The in vitro clearance entry in data set [1] (mouse liver microsomes) was “low in vitro clearance”. Also, in data set [1] (supplementary CSV), the microsomal stability is given as 92%. In addition, in data set [2], the “cAMP pIC50” value is reported as 7.83 ± 0.14; the LLEcAMP worked out at 5.90; the LLEcAMP-logD is 7.1 and 7.12. Further, in data set [2] (supplementary CSV, read-out: hFFA2 cAMP (pIC50) (converted)), the IC50 was 10.2 nM. In data set [2] (vs 16s, assay not specified), this compound registered an increase in potency of 9 fold. Moreover, in data set [3], the “GTPγS pIC50” value amounted to 8.21 ± 0.09 and the LLEGTPγS turned out to be 6.28. This compound displayed a chemical stability in data set [4] (setting [6]) of more than 95%. In addition, the chemical stability in data set [4] (supplementary CSV) is reported as more than 95%.
`COc1cccc(CC(=O)N[C@@H](Cc2ccc(C(F)(F)F)cc2)Cc2nnn[nH]2)c1` [Compound 16l, (S)-N-(1-(1H-Tetrazol-5-yl)-3-(4-(trifluoromethyl)phenyl)propan-2-yl)-2-(3-methoxyphenyl)acetamide] came in with a microsomal stability in data set [1] (setting [5]) of 93%. For the same compound, the in vitro clearance entry in data set [1] (mouse liver microsomes) was “low in vitro clearance”. Also, the microsomal stability in data set [1] (supplementary CSV) is 93%. In data set [2], the “cAMP pIC50” value stood at 8.35 ± 0.15; the LLEcAMP worked out at 5.87; the LLEcAMP-logD was 7.5 and 7.51. Also, the IC50 in data set [2] (inhibition of propionate at FFA2, read-out: IC50 in cAMP assay) is 3 to 4 nM and 4 nM. For the same compound, in data set [3], the “GTPγS pIC50” value was found to be 8.46 ± 0.05 and the LLEGTPγS is listed as 5.98. In addition, the IC50 in data set [3] (inhibition of propionate at FFA2) is 3 to 4 nM and 4 nM. Moreover, the chemical stability in data set [4] (setting [6]) is more than 95%. This compound also came in with a chemical stability in data set [4] (supplementary CSV) of more than 95%.
